Source: the supplement of paper PMC10307832

Key:
Assay in all cases: relative viability (nuclei count vs DMSO), 5 days (fraction); higher = more cells survive
[1] = tested on: HCC-366
In short: (§1)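 Lung cancer cell lines, seeded in 1536-well plates, were treated the following day by pin tool with a single drug or with five library-drug doses (not always all listed) in √10 steps on top of a fixed anchor-drug dose. Cells were fixed and nuclei stained in one step after 5 days, and nuclei were counted. Relative viability is the nuclei count for treated wells divided by that for vehicle wells, reported as medians of duplicate plates.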

[2] = tested on: NCI-H2009
In short: as §1

[3] = tested on: SK-LU-1
In short: as §1

[4] = tested on: HCC-15
In short: as §1

[5] = tested on: NCI-H2023
In short: as §1

[6] = tested on: NCI-H460
In short: as §1

[7] = tested on: NCI-H1437
In short: as §1

[8] = tested on: NCI-H1915
In short: as §1

[9] = tested on: NCI-H1793
In short: as §1

[10] = tested on: NCI-H596
In short: as §1

[11] = tested on: NCI-H2405
In short: as §1

[12] = tested on: PC-14
In short: as §1

[13] = tested on: NCI-H650
In short: as §1

[14] = tested on: H3255
In short: as §1

[15] = tested on: A-427
In short: as §1

[16] = tested on: NCI-H3122
In short: as §1

[17] = tested on: UMC-11
In short: as §1

[18] = tested on: LXF-289
In short: as §1

[19] = tested on: HARA
In short: as §1

[20] = tested on: NCI-H1975
In short: as §1

[21] = tested on: NCI-H1755
In short: as §1

[22] = tested on: PC-3 [JPC-3]
In short: as §1

Cc1cnc(-c2cnc(NCCNc3ccc(C#N)cn3)nc2-c2ccc(Cl)cc2Cl)[nH]1 + CS(=O)(=O)CCNCc1ccc(-c2ccc3ncnc(Nc4ccc(OCc5cccc(F)c5)c(Cl)c4)c3c2)o1 [Lapatinib] (partner 2 µM)
relative viability ([1]; first compound 0.08 µM): 0.989
relative viability ([1]; first compound 0.253 µM): 0.951
relative viability ([1]; first compound 0.8 µM): 1.08
relative viability ([1]; first compound 2.53 µM): 0.935
relative viability ([2]; first compound 0.08 µM): 0.991
relative viability ([2]; first compound 0.253 µM): 0.522
relative viability ([2]; first compound 0.8 µM): 0.866
relative viability ([2]; first compound 2.53 µM): 0.905
relative viability ([3]; first compound 0.08 µM): 0.87
relative viability ([3]; first compound 0.253 µM): 0.96
relative viability ([3]; first compound 0.8 µM): 0.999
relative viability ([3]; first compound 2.53 µM): 1.11
relative viability ([4]; first compound 0.08 µM): 0.813
relative viability ([4]; first compound 0.253 µM): 0.577
relative viability ([4]; first compound 0.8 µM): 0.903
relative viability ([4]; first compound 2.53 µM): 0.843
relative viability ([5]; first compound 0.08 µM): 1.23
relative viability ([5]; first compound 0.253 µM): 0.431
relative viability ([5]; first compound 0.8 µM): 0.827
relative viability ([5]; first compound 2.53 µM): 0.913
relative viability ([6]; first compound 0.08 µM): 0.943
relative viability ([6]; first compound 0.253 µM): 0.826
relative viability ([6]; first compound 0.8 µM): 0.864
relative viability ([6]; first compound 2.53 µM): 0.775
relative viability ([7]; first compound 0.08 µM): 0.848
relative viability ([7]; first compound 0.253 µM): 0.715
relative viability ([7]; first compound 0.8 µM): 0.805
relative viability ([7]; first compound 2.53 µM): 0.793
relative viability ([8]; first compound 0.08 µM): 0.985
relative viability ([8]; first compound 0.8 µM): 0.947
relative viability ([8]; first compound 2.53 µM): 1.04
relative viability ([9]; first compound 0.08 µM): 0.608
relative viability ([9]; first compound 0.253 µM): 0.678
relative viability ([9]; first compound 0.8 µM): 0.721
relative viability ([9]; first compound 2.53 µM): 1.02
relative viability ([10]; first compound 0.08 µM): 1.04
relative viability ([10]; first compound 0.253 µM): 0.994
relative viability ([10]; first compound 0.8 µM): 1.09
relative viability ([10]; first compound 2.53 µM): 1.02
relative viability ([11]; first compound 0.08 µM): 1.11
relative viability ([11]; first compound 0.253 µM): 1.01
relative viability ([11]; first compound 0.8 µM): 0.741
relative viability ([11]; first compound 2.53 µM): 0.523
relative viability ([12]; first compound 0.08 µM): 0.352
relative viability ([12]; first compound 0.253 µM): 0.29
relative viability ([12]; first compound 0.8 µM): 0.277
relative viability ([12]; first compound 2.53 µM): 0.38
relative viability ([13]; first compound 0.08 µM): 0.926
relative viability ([13]; first compound 0.253 µM): 1.12
relative viability ([13]; first compound 0.8 µM): 0.478
relative viability ([13]; first compound 2.53 µM): 0.789
relative viability ([14]; first compound 0.08 µM): 0.28
relative viability ([14]; first compound 0.253 µM): 0.249
relative viability ([14]; first compound 0.8 µM): 0.219
relative viability ([14]; first compound 2.53 µM): 0.244
relative viability ([15]; first compound 0.08 µM): 1.03
relative viability ([15]; first compound 0.253 µM): 0.942
relative viability ([15]; first compound 0.8 µM): 1.09
relative viability ([15]; first compound 2.53 µM): 1.03
relative viability ([16]; first compound 0.08 µM): 0.977
relative viability ([16]; first compound 0.253 µM): 0.933
relative viability ([16]; first compound 0.8 µM): 0.997
relative viability ([16]; first compound 2.53 µM): 1.03
relative viability ([17]; first compound 0.08 µM): 1.22
relative viability ([17]; first compound 0.253 µM): 0.7
relative viability ([17]; first compound 0.8 µM): 0.697
relative viability ([17]; first compound 2.53 µM): 1.09
relative viability ([18]; first compound 0.08 µM): 0.957
relative viability ([18]; first compound 0.253 µM): 0.806
relative viability ([18]; first compound 0.8 µM): 0.896
relative viability ([18]; first compound 2.53 µM): 1.04
relative viability ([19]; first compound 0.08 µM): 1.03
relative viability ([19]; first compound 0.253 µM): 0.598
relative viability ([19]; first compound 0.8 µM): 0.799
relative viability ([19]; first compound 2.53 µM): 0.607
relative viability ([20]; first compound 0.08 µM): 1.01
relative viability ([20]; first compound 0.253 µM): 0.9
relative viability ([20]; first compound 0.8 µM): 0.694
relative viability ([20]; first compound 2.53 µM): 0.558
relative viability ([21]; first compound 0.08 µM): 1.04
relative viability ([21]; first compound 0.253 µM): 0.785
relative viability ([21]; first compound 0.8 µM): 1.06
relative viability ([21]; first compound 2.53 µM): 1.07
relative viability ([22]; first compound 0.08 µM): 0.498
relative viability ([22]; first compound 0.253 µM): 0.449
relative viability ([22]; first compound 0.8 µM): 0.419
relative viability ([22]; first compound 2.53 µM): 0.474
